Legend:
Type in all cases: physicochemical
[1] = Solid state stability of the trihydrochloride salt forms; conditions: humidity lowered down to 10% r.h.
Source text: Under standard conditions the crystalline trihydrochloride salt form of N-[trans-4-[4-(cyclopropylmethyl)-1-piperazinyl]cyclohexyl]-4-[[(7R)-7-ethyl-5,6,7,8-tetrahydro-5-methyl-8-(1-methylethyl)-6-oxo-2-pteridinyl]amino]-3-methoxy-benzamide is present in the form of an hydrate and is obtainable after drying with a changing stoichiometry (1-3 water equivalents). The hydrate with a stoichiometry close to a trihydrate seems to be the stable hydrated form under ambient conditions and can be obtained after conditioning of the dried material. The crystal water is tightly bound.
The respective anhydrous form, obtained by heating a sample up to 140° C., is not stable.

[2] = Solubility in aqueous media
Source text: Solubility in Aqueous Media

[3] = Intrinsic dissolution rate in aqueous media (rotating disc method); conditions: 37° C., 200 rpm
Method: The intrinsic dissolution rate of this crystalline form of the compound […] which maintains a constant surface area. 5 mg drug substance is compressed to form a disc at 356.1 N for 60 s. These discs are mounted to specially designed sample holders which fit into a Sotax dissolution tester. The dissolution media (37° C.) are stirred at 200 rpm. Samples are automatically withdrawn every second minute from the dissolution vessel and assayed via UV spectrophotometry. The intrinsic dissolution rate expressed in μg/cm^2/min is calculated using the slope of the concentration versus time plot and from the linear portion of the slope of the dissolution curve, volume of dissolution medium (35 ml) and area (diameter: 2 mm) of the exposed disk.

[4] = Hygroscopical behaviour, water sorption isotherms (DVS-1); conditions: 25° C.
Method: To study the hygroscopical behaviour of this material, sorption isotherms are registered on a DVS-1 water sorption monitor from Surface Measurement Systems. Adsorption and desorption isotherms are performed at 25° C. with 10% r.h. step intervals ranging from 10% r.h. up to 90% r.h.

For `CC[C@@H]1C(=O)N(C)c2cnc(Nc3ccc(C(=O)N[C@H]4CC[C@H](N5CCN(CC6CC6)CC5)CC4)cc3OC)nc2N1C(C)C.Cl.Cl.Cl.O.O.O` [formula (I) trihydrochloride, N-[trans-4-[4-(cyclopropylmethyl)-1-piperazinyl]cyclohexyl]-4-[[(7R)-7-ethyl-5,6,7,8-tetrahydro-5-methyl-8-(1-methylethyl)-6-oxo-2-pteridinyl]amino]-3-methoxy-benzamide trihydrochloride trihydrate], the “weight loss on lowering the humidity” value [1] was “does not result in a significant weight loss”.

With `CC[C@@H]1C(=O)N(C)c2cnc(Nc3ccc(C(=O)N[C@H]4CC[C@H](N5CCN(CC6CC6)CC5)CC4)cc3OC)nc2N1C(C)C` [formula (I), N-[trans-4-[4-(cyclopropylmethyl)-1-piperazinyl]cyclohexyl]-4-[[(7R)-7-ethyl-5,6,7,8-tetrahydro-5-methyl-8-(1-methylethyl)-6-oxo-2-pteridinyl]amino]-3-methoxy-benzamide] the solubility ([2]; Sörensen buffer, aqueous buffer, thermodynamic from solid, Sörensen pH 9.0, pH of the saturated solution 9.2) was 3 µg/mL, the solubility ([2]; Sörensen buffer, aqueous buffer, thermodynamic from solid, Sörensen pH 10, pH of the saturated solution 9.9) was 7 µg/mL and the solubility ([2]; Sörensen buffer, aqueous buffer, thermodynamic from solid, Sörensen pH 11, pH of the saturated solution 10.5) was 9 µg/mL. For the same compound, the solubility ([2]; aqueous buffer, thermodynamic from solid, McIlvaine buffer pH 2.2, pH of the saturated solution 2.8) was > 10000 µg/mL, the solubility ([2]; aqueous buffer, thermodynamic from solid, McIlvaine buffer pH 3.0, pH of the saturated solution 3.6) was > 10000 µg/mL and the solubility ([2]; aqueous buffer, thermodynamic from solid, McIlvaine buffer pH 4.0, pH of the saturated solution 4.6) was > 10000 µg/mL. For the same compound, the solubility ([2]; aqueous buffer, thermodynamic from solid, McIlvaine buffer pH 5.0, pH of the saturated solution 5.5) was > 10000 µg/mL, the solubility ([2]; aqueous buffer, thermodynamic from solid, McIlvaine buffer pH 6.0, pH of the saturated solution 6.3) was > 10000 µg/mL and the solubility ([2]; aqueous buffer, thermodynamic from solid, McIlvaine buffer pH 7.0, pH of the saturated solution 7.2) was > 10000 µg/mL. For the same compound, the solubility ([2]; aqueous buffer, thermodynamic from solid, McIlvaine buffer pH 7.4, pH of the saturated solution 7.4) was 2500 µg/mL, the “solubility profile in aqueous media (conclusion in words)” value ([2]; aqueous media of Table 1) was “good solubility profile” and the solubility ([2]; pH 1.1, simulated gastric fluid, thermodynamic from solid, medium 0.1 N HCl, pH of the saturated solution 1.1) was > 10000 µg/mL. For the same compound, the solubility ([2]; pH 6.8, simulated gastric fluid, thermodynamic from solid, medium 0.01 N HCl, pH of the saturated solution 6.8) was 7600 µg/mL, the solubility ([2]; pH 9.6, thermodynamic from solid, medium water, pH of the saturated solution 9.6) was 110 µg/mL and the solubility ([2]; pH 11.7, aqueous buffer, thermodynamic from solid, 0.01 N NaOH, pH of the saturated solution 11.7) was 8 µg/mL. The solubility ([2]; pH 12.8, aqueous buffer, thermodynamic from solid, 0.01 N NaOH (second line), pH of the saturated solution 12.8) was 3 µg/mL, the solubility ([2]; phosphate buffer, aqueous buffer, thermodynamic from solid, Phosphate pH 6.0, pH of the saturated solution 6.5) was > 10000 µg/mL and the solubility ([2]; phosphate buffer, aqueous buffer, thermodynamic from solid, Phosphate pH 7.0, pH of the saturated solution 7.3) was 10000 µg/mL. It also gave a solubility ([2]; phosphate buffer, aqueous buffer, thermodynamic from solid, Phosphate pH 8.0, pH of the saturated solution 8.1) of 36 µg/mL, a dissolution rate ([3]; pH of aqueous medium 1.1) of 6600 μg/cm^2/min and a dissolution rate ([3]; pH of aqueous medium 3.1) of 2760 μg/cm^2/min. It also gave a dissolution rate ([3]; pH of aqueous medium 4.1) of 1810 μg/cm^2/min, a dissolution rate ([3]; pH of aqueous medium 5.0) of 1390 μg/cm^2/min and a dissolution rate ([3]; pH of aqueous medium 6.1) of 1180 μg/cm^2/min. The dissolution rate ([3]; pH of aqueous medium 7.5) was <50 μg/cm^2/min, the “hygroscopicity (in words)” value ([4]; 10% r.h. up to 90% r.h.) was “not hygroscopic” and the “reversibility of the water-uptake” value ([4]; adsorption and desorption isotherms) was “completely reversible”. The uptake of water ([4]; over the range 10-90% r.h.) was “approx. 0.7%”.
